Assay results published in paper PMC4677665 (ACS Medicinal Chemistry Letters, 2015).

Assays:
[1] = system: CRL-8155 human lymphocytic cells; conditions: CRL-8155 cell line, 48 hours
[2] = system: panel of ∼80 diverse human kinases; conditions: read-out: IC50s of the kinases inhibited below 1 μM; three of the 80 kinases
[3] = system: Type I RH strain T. gondii
[4] = Brain penetration experiment; format: in vivo, mice; conditions: mouse, ip, 5 mg/kg

Row | Compound | cytotoxicity [1] | other results
1 | CC(C)(C)n1nc(-c2cnc3cc(OCC4CC4)ccc3c2)c(C(N)=O)c1N [Compound 32] | >40 µM | 
2 | CC(C)(C)n1nc(-c2ccc3nc(OC4CC4)ccc3c2)c(C(N)=O)c1N [Compound 35] | >40 µM | IC50 [2]: 200 to 500 nM; T. gondii in the peritoneal fluid (in words) ([3]; 20 mg/kg): eliminated T. gondii from the peritoneal fluid; death of treated mice ([3]; 50 mg/kg group, po): one mouse in the 35, 50 mg/kg group died on the fifth day of treatment
3 | CCOc1ccc2cc(-c3nn(C4CCC4)c(N)c3C(N)=O)cnc2c1 [Compound 7] | >40 µM | 
4 | CCOc1ccc2cc(-c3nn(C(C)(C)C)c(N)c3C(N)=O)ccc2n1 [Compound 17] | >40 µM | 
5 | CCOc1ccc2cc(-c3nn(CC(C)(C)CO)c(N)c3C(N)=O)cnc2c1 [Compound 16] | >40 µM | 
6 | CC(C)(C)n1nc(-c2cnc3cc(F)ccc3c2)c(C(N)=O)c1N [Compound 23] | >40 µM | 
7 | CCOc1ccc2cc(-c3nn(C4CCCCCC4)c(N)c3C(N)=O)cnc2c1 [Compound 11] | >40 µM | 
8 | CCOc1ccc2cc(-c3nn(C4CCCC4)c(N)c3C(N)=O)cnc2c1 [Compound 8] | >40 µM | 
9 | COc1ccc2cc(-c3nn(C(C)(C)C)c(N)c3C(N)=O)cnc2c1 [Compound 28] | >40 µM | 
10 | CCOc1ccc2cc(-c3nn(CC4CC4)c(N)c3C(N)=O)cnc2c1 [Compound 6] | >40 µM | 
11 | CC(C)Oc1ccc2cc(-c3nn(C(C)(C)C)c(N)c3C(N)=O)cnc2c1 [Compound 30] | >40 µM | 
12 | CC(C)(C)n1nc(-c2ccc3nc(OC4CCC4)ccc3c2)c(C(N)=O)c1N [Compound 37] | >40 µM | 
13 | CCCOc1ccc2cc(-c3nn(C(C)(C)C)c(N)c3C(N)=O)cnc2c1 [Compound 31] | >40 µM | 
14 | CCOc1ccc2cc(-c3nn(C(C)(C)C)c(N)c3C(N)=O)cnc2c1 [Compound 1] | >30 µM | Kp [4]: 0.158; T. gondii infection, peritoneal parasite count (in words) ([3]; po for 5 days, twice daily): significantly reduced T. gondii infection
15 | CCOc1ccc2cc(-c3nn(CC(C)(C)CO)c(N)c3C(N)=O)ccc2n1 [Compound 22] | >40 µM | 
16 | CCOc1ccc2cc(-c3nn(CC4CC4)c(N)c3C(N)=O)ccc2n1 [Compound 19] | >40 µM | 
